The conditions of data set [1]: pampa, 8 h.
Data set [2] can be described thus: in vitro. Conditions: PAMPA. For orientation: In PAMPA a lipid-coated filter parts donor from acceptor wells.
Description: Permeability of the compound incubated for 165 mins by PAMPA-BBB assay
The nature of data set [3]: in vitro. The settings on record: PAMPA. The source holds these as a separate data set.
The target in data set [4] is T1, 3',5'-cyclic-AMP phosphodiesterase 4D (Homo sapiens, UniProt Q08499). Description: Inhibition of human recombinant PDE4D3 using FAM-cAMP as substrate measured after 1 hr by IMAP TR-FRET assay relative to control.
Data set [5] deals with Trachea. Description: […] activity in OVA-sensitized guinea pig-derived trachea assessed as decrease in CCh-induced tracheal tonic contraction in absence of functional epithelium treated with compound after contraction stabilised. The format is tissue-based. Conditions: Cavia porcellus.
Data set [6] is filed under the species Homo sapiens. Description: Inhibition of human recombinant PDE4A1A using FAM-cAMP as substrate measured after 1 hr by IMAP TR-FRET assay relative to control. In general terms: Time-resolved FRET reads energy transfer from a long-lived donor to a nearby acceptor.
Data set [7] relates to Trachea. Description: […] activity in OVA-sensitized guinea pig-derived trachea assessed as decrease in CCh-induced tracheal tonic contraction in presence of functional epithelium treated with compound after contraction stabilised. The format is tissue-based. The settings on record: Cavia porcellus.
Data set [8] concerns Trachea. Description: […] activity in non-sensitized guinea pig-derived trachea assessed as decrease in CCh-induced tracheal tonic contraction in absence of functional epithelium treated with compound after contraction stabilised. The format is tissue-based. The settings on record: Cavia porcellus.
For data set [9], the system named is Trachea. Description: […] activity in non-sensitized guinea pig-derived trachea assessed as decrease in CCh-induced tracheal tonic contraction in presence of functional epithelium. The format is tissue-based. Conditions: Cavia porcellus.
Data set [10] concerns Mus musculus. Description: Antiinflammatory activity against A/J mouse assessed as decrease in LPS-induced airway hyperreactivity at 25 umol/kg, po treated via gavage for 1 hr before LPS stimulation measured after 24 hrs by whole body plethysmography relative to control. The format is functional. The settings on record: 25 h.
For data set [11], the system named is Mus musculus. Description: Antiinflammatory activity against A/J mouse assessed as decrease in LPS-induced airway hyperreactivity at 6.25 umol/kg, po treated via gavage for 1 hr before LPS stimulation measured after 24 hrs by whole body plethysmography relative to control. The settings on record: 25 h. The format is functional.
For data set [12], the system named is Mus musculus. Description: Antiinflammatory activity against A/J mouse assessed as decrease in LPS-induced TNFalpha production in lungs at 25 umol/kg, po treated via gavage for 1 hr before LPS stimulation and measured after 24 hrs by ELISA relative to control. Conditions: 25 h. The format is functional. (In general: ELISA stands for enzyme-linked immunosorbent assay.)

In data set [13] the test system is Mus musculus. Description: Antiinflammatory activity against A/J mouse assessed as decrease in LPS-induced TNFalpha production in lungs at 6.25 umol/kg, po treated via gavage for 1 hr before LPS stimulation and measured after 24 hrs by ELISA relative to control. The settings on record: 25 h. The format is functional.
A short description of data set [14]: Chemical stability of the compound in phosphate buffer at pH 7.4 measured upto 120 mins by HPLC-DAD analysis. The format is physicochemical. The settings on record: pH 7.4, 2 h.
A short description of data set [15]: Inhibition of human recombinant PDE4A1A using FAM-cAMP as substrate measured after 1 hr by IMAP TR-FRET assay.
For data set [16], the target named is T2, 3',5'-cyclic-AMP phosphodiesterase 4C (Homo sapiens, UniProt Q08493). Description: Inhibition of human recombinant PDE4C using FAM-cAMP as substrate at 10 uM measured after 1 hr by IMAP TR-FRET assay.
Data set [17] concerns the target T1, 3',5'-cyclic-AMP phosphodiesterase 4D. Description: Inhibition of human recombinant PDE4D3 using FAM-cAMP as substrate measured after 1 hr by IMAP TR-FRET assay.
Data set [18] is filed under the species Homo sapiens. Description: Inhibition of human recombinant PDE4A1A using FAM-cAMP as substrate at 10 uM measured after 1 hr by IMAP TR-FRET assay.
The target in data set [19] is T3, 3',5'-cyclic-AMP phosphodiesterase 4B (Homo sapiens, UniProt Q07343). Description: Inhibition of human recombinant PDE4B1 using FAM-cAMP as substrate at 10 uM measured after 1 hr by IMAP TR-FRET assay.
For data set [20], the target named is T1, 3',5'-cyclic-AMP phosphodiesterase 4D. Description: Inhibition of human recombinant PDE4D3 using FAM-cAMP as substrate at 10 uM measured after 1 hr by IMAP TR-FRET assay.
Data set [21] can be described thus: Chemical stability of the compound in KCl/HCl buffer at pH 2.0 measured upto 120 mins by HPLC-DAD analysis. Conditions: pH 2, 2 h.
Data set [22] concerns the target 3',5'-cyclic-AMP phosphodiesterase 4A (Homo sapiens, UniProt P27815). Description: Inhibition of PDE4A (unknown origin).
Data set [23] addresses T3, 3',5'-cyclic-AMP phosphodiesterase 4B. Description: Inhibition of PDE4B (unknown origin).
Data set [24] addresses T2, 3',5'-cyclic-AMP phosphodiesterase 4C.
Description: Inhibition of PDE4C (unknown origin)
In data set [25] the target is T1, 3',5'-cyclic-AMP phosphodiesterase 4D.
Description: Inhibition of PDE4D (unknown origin)
Data set [26] is described as follows: in vitro. The settings on record: PAMPA. This is another data set of the same source.
Description: Permeability of the compound by PAMPA-TGI assay
In data set [27] the test system is Mus musculus. Description: Antiinflammatory activity against A/J mouse assessed as decrease in LPS-induced airway hyperreactivity at 3 umol/kg, po treated via gavage for 1 hr before LPS stimulation measured after 24 hrs by whole body plethysmography relative to control. The settings on record: 25 h. The format is functional.
The subject of data set [28] is Mus musculus. Description: Antiinflammatory activity against A/J mouse assessed as decrease in LPS-induced TNFalpha production in lungs at 3 umol/kg, po treated via gavage for 1 hr before LPS stimulation and measured after 24 hrs by ELISA relative to control. The format is functional. The settings on record: 25 h.

Some results are limits rather than exact numbers.

T1 sequence (Q08499 whole entry): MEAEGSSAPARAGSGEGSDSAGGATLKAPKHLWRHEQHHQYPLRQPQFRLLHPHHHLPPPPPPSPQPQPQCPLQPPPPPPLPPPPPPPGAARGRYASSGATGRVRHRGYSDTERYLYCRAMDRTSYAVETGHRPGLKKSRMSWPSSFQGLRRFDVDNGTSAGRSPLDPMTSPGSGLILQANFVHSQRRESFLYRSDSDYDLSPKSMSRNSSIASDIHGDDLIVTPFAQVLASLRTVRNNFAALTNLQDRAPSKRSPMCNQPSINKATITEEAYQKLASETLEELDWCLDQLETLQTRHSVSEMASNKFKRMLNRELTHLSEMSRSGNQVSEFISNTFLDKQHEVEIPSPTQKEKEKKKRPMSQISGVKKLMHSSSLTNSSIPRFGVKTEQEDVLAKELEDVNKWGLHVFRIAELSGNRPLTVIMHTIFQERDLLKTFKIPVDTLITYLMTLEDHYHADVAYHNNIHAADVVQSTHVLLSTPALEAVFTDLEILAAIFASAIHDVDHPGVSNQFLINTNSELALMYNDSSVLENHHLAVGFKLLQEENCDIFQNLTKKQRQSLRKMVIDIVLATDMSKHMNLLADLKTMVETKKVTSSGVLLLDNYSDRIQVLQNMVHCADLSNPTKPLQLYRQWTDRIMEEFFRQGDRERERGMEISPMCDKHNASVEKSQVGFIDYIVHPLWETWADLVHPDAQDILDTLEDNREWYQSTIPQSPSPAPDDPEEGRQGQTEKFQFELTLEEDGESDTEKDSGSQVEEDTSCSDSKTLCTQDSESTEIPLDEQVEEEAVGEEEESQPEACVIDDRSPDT
T2 sequence (Q08493 whole entry): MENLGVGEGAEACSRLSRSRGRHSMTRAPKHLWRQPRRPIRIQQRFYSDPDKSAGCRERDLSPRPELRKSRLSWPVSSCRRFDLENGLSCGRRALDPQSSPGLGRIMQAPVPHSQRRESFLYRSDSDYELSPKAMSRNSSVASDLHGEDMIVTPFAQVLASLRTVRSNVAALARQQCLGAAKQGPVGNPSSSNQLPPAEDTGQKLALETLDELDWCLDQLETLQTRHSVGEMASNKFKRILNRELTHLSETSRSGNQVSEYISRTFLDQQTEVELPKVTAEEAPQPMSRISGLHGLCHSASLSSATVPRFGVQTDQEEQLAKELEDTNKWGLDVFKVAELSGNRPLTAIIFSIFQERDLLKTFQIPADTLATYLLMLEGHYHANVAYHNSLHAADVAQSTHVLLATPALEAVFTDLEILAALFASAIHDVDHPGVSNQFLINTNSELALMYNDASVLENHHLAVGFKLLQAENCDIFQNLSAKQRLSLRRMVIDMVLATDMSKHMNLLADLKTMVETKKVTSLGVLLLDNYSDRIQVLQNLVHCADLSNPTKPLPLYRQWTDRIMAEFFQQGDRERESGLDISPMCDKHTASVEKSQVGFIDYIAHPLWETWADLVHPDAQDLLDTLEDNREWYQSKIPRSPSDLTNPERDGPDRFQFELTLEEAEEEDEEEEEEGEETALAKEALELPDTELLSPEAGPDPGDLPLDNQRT
T3 sequence (Q07343 whole entry): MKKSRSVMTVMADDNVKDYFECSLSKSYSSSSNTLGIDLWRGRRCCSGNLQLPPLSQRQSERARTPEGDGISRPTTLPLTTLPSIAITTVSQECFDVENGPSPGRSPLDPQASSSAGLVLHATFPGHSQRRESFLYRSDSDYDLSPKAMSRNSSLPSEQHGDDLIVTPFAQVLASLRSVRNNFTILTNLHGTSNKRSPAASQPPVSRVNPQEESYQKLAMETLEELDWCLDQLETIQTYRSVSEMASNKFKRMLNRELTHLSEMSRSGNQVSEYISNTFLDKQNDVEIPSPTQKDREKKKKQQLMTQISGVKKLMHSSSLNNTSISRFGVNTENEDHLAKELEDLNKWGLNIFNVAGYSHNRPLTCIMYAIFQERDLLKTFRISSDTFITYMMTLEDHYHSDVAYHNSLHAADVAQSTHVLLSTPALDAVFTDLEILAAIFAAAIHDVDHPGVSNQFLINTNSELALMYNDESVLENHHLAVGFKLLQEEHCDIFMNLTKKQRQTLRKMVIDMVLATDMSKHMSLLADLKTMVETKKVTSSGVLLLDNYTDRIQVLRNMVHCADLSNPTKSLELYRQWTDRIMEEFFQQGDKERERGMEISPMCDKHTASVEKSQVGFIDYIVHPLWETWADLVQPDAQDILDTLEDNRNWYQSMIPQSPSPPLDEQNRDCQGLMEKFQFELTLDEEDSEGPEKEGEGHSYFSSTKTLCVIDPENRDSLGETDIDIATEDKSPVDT
Chain of 3',5'-cyclic-AMP phosphodiesterase 4A (P27815 whole entry): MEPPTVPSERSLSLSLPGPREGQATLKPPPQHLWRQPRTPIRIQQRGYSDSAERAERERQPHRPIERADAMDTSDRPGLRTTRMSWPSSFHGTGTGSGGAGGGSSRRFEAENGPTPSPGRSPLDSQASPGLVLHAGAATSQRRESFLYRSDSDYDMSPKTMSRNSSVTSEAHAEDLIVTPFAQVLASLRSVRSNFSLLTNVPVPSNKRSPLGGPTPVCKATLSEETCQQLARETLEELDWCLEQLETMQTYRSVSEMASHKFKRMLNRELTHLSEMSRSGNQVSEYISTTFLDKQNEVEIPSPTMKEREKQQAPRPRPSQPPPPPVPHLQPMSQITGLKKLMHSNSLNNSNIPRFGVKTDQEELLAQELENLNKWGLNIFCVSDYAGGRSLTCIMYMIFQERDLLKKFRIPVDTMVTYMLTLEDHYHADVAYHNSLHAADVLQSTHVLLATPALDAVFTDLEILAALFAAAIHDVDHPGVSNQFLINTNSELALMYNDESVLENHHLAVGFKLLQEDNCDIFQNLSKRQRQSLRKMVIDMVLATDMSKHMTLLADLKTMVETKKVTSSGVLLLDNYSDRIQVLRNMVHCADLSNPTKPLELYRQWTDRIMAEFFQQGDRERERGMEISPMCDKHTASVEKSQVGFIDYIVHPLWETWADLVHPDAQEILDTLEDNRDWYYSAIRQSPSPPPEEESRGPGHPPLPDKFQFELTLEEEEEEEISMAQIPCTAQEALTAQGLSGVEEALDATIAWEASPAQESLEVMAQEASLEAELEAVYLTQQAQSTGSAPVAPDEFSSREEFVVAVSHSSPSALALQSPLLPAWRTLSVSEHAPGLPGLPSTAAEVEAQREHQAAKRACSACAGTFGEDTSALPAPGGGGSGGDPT

The term Papp denotes a coefficient for how fast a substance crosses the barrier. Read a low Papp as slow passage. Compound `O=C(Nc1c(Cl)cncc1Cl)c1ccc(OC(F)F)c(OCC2CC2)c1` [ROFLUMILAST] returned a Drug absorption in [1] of 86.58%. Besides, the Papp at 2.75 h in the data set “in vitro [2]” is 8.05 ×10⁻⁶ cm/s. The same compound came in with a Papp at 8 h in “in vitro [3]” of 5.28 ×10⁻⁶ cm/s.
As usually defined, the Emax is the size of the effect at its maximum, as opposed to the concentration needed. As usually defined, the EC50 is the concentration giving half of the maximal effect. What is called inhibition in vivo is the relative decrease from the control value, in per cent. One may read the IC50 as the concentration at which inhibition is half-maximal. The inhibition is the share of the control response that was lost under treatment. In the case of `COc1ccc(/C=N/N(C)S(=O)(=O)c2cc3c(cc2C)OCO3)cc1OC`, the figures for the Emax (in [4]; in the data set filed under Homo sapiens [6]) were 93% and 100%, respectively. The concentration giving a half-maximal response (EC50) with Trachea [5] was 3.16 µM; with Trachea [7], 6.46 µM; in the data set on Trachea [8], 8.13 µM; in the data set on Trachea [9], 8.32 µM. Moreover, the inhibition in vivo at 25 µmol/kg came to 97% with Mus musculus [10] and 85.9% in the data set with Mus musculus [12]. In addition, the inhibition in vivo at 6.25 µmol/kg was found to be 99% in the data set on Mus musculus [11] and 48.7% in the data set on Mus musculus [13]. Further, the figures for the Stabilty entry in data set [14] and in data set [21] were “Stable” and “Unstable”, respectively. Further, the IC50 came to 0.5 µM in data set [15] and 0.7 µM in [17]. Moreover, the inhibition in data set [16] worked out at 25.5%; in the data set listed under Homo sapiens [18] it was 90.4%; in data set [19], 22.7%; in data set [20], 90.7%. In data set [1], this compound showed a Drug absorption of 99.3%. For the same compound, the Papp at 8 h in the data set “in vitro [3]” came to 13.1 ×10⁻⁶ cm/s.
With `C[C@@H](Oc1ccc(CNC(=O)c2cccnc2Oc2ccc3c(c2)OCO3)c(F)c1)C(=O)O`, the IC50 in data set [22] was 0.31 µM; in [23], 0.287 µM; in data set [24], 3.86 µM; in [25], 0.003 µM.
`CC(=O)N1CCN(c2ccc(OCC3COC(Cn4ccnc4)(c4ccc(Cl)cc4Cl)O3)cc2)CC1` (stereo not drawn) [KETOCONAZOLE] yielded a Drug absorption in data set [1] of 84.68%. The compound also gave a Papp at 8 h in “in vitro [3]” of 4.93 ×10⁻⁶ cm/s. In “in vitro [26]”, this compound registered a Papp of 3.3 ×10⁻⁶ cm/s.
With `O=C(O)c1cc(/N=N/c2ccc(S(=O)(=O)Nc3ccccn3)cc2)ccc1O` [SULFASALAZINE], the Papp at 8 h in “in vitro [3]” stood at 0.45 ×10⁻⁶ cm/s. Further, the Papp in “in vitro [26]” turned out to be 0.3 ×10⁻⁶ cm/s.
Take `CC(=O)Oc1ccccc1C(=O)O` [ASPIRIN]: the Drug absorption in [1] worked out at 47.36%. Besides, the Papp at 8 h in “in vitro [3]” turned out to be 1.69 ×10⁻⁶ cm/s. Also, the Papp in the data set “in vitro [26]” was determined as 3.8 ×10⁻⁶ cm/s.
With `COc1ccc([C@]2(C#N)CC[C@@H](C(=O)O)CC2)cc1OC1CCCC1` [CILOMILAST], the Emax (in [4]; in the data set filed under Homo sapiens [6]) was 99% each time. Also, the inhibition in vivo at 3 µmol/kg was found to be 94% in the data set on Mus musculus [27] and 98.9% in the data set with Mus musculus [28]. Further, the IC50 in data set [15] amounted to 0.2 µM. The inhibition stood at 98.5% in data set [16], 91.3% in the data set filed under Homo sapiens [18], 91.3% in data set [19] and 98.8% in data set [20]. Further, in data set [1], the Drug absorption is reported as 93.74%. The Papp at 8 h in “in vitro [3]” was 7.29 ×10⁻⁶ cm/s.
Turning to `COc1ccc(CCNS(=O)(=O)c2cc3c(cc2C)OCO3)cc1OC`, the EC50 was 25.1 µM with Trachea [5], 24.5 µM in the data set with Trachea [7], 43.7 µM in the data set with Trachea [8] and 29.5 µM in the data set with Trachea [9]. In addition, the Stabilty entry in data set [14] and in data set [21] was “Stable” each time. In addition, the IC50 in data set [15] came to 0.7 µM. Also, the inhibition in data set [16] is 21.3%; in the data set listed under Homo sapiens [18], 11.8%; in data set [19] it was below 5%; in data set [20] it was below 5%. In addition, the Papp at 2.75 h in “in vitro [2]” worked out at 3.46 ×10⁻⁶ cm/s.
